Results taken from ChEMBL document CHEMBL5154737, “Semisynthesis and biological evaluation of (+)-sclerotiorin derivatives as antitumor agents for the treatment of hepatocellular carcinoma” (Eur J Med Chem, 2022).
Active and inactive are the calls of the source. No cut-off for these calls is given here.

Columns and labels:
[1] = Toxicity in ICR mouse assessed as change in mean corpuscular volume at 100 mg/kg, ip qd (reference value: 51.3 fL); format: organism-based; settings: in vivo
[2] = MRT (0 to t) in Sprague-Dawley rat at 20 mg/kg, ip measured for 0.03 to 24 hrs by UPLC-MS analysis; format: ADME, organism-based; settings: in vivo, time 0.03-24 hrs
[3] = Toxicity in ICR mouse assessed as change in lymphocyte level at 100 mg/kg, ip qd (reference value: 75.2 %); format: organism-based; settings: in vivo
[4] = system: Bel-7402; experiment: Induction of apoptosis in human Bel-7402 cells assessed as early apoptotic cells at 0.313 uM incubated for 24 hrs by Annexin V and dead cell assay kit (reference value: 3.75 %); format: functional
[5] = Toxicity in ICR mouse assessed as change in monocyte count at 100 mg/kg, ip qd (reference value: 0.1 10^9/L); format: organism-based; settings: in vivo
[6] = system: Bel-7402; experiment: Antitumor activity against human Bel-7402 cells xenografted in BALB/c nude mouse assessed as reduction in tumor growth at 20 mg/kg, ip qd measured every 2 days for 14 days; format: functional, organism-based; settings: time 14.0 day
[7] = system: Bel-7402; experiment: Induction of apoptosis in human Bel-7402 cells assessed as early apoptotic cells at 0.625 uM incubated for 24 hrs by Annexin V and dead cell assay kit (reference value: 3.75 %); format: functional
[8] = Chronic toxicity in ICR mouse assessed as effect on kidney morphology at 100 mg/kg, ip qd measured after 26 days by H and E staining method; format: organism-based; settings: in vivo, 624 h, time 26 day
[9] = Toxicity in ICR mouse assessed as change in red blood cell volume distribution width at 100 mg/kg, ip qd (reference value: 16.6 %); format: organism-based; settings: in vivo
[10] = Chronic toxicity in ICR mouse assessed as effect on lung morphology at 100 mg/kg, ip qd measured after 26 days by H and E staining method; format: organism-based; settings: in vivo, 624 h, time 26 day
[11] = Half life in Sprague-Dawley rat at 20 mg/kg, ip measured for 0.03 to 24 hrs by UPLC-MS analysis; format: ADME, organism-based; settings: in vivo, time 0.03-24 hrs
[12] = Toxicity in ICR mouse assessed as change in platelet distribution width at 100 mg/kg, ip qd (reference value: 16.7); format: organism-based; settings: in vivo
[13] = system: Bel-7402; experiment: Induction of apoptosis in human Bel-7402 cells assessed as increase in cleaved PARP upto 2.5 uM incubated for 24 hrs by Western blot analysis; format: functional, cell-based
[14] = system: PANC-1; experiment: Cytotoxicity against human PANC-1 cells assessed as reduction in cell viability incubated for 72 hrs by MTT assay; format: functional, cell-based; settings: PANC-1, 72 h
[15] = system: Bel-7402; experiment: Induction of apoptosis in human Bel-7402 cells assessed as viable cells at 2.5 uM incubated for 24 hrs by Annexin V and Dead cell kit assay (reference value: 90.82 %); format: functional; settings: read-out: Activity
[16] = Toxicity in ICR mouse assessed as change in red blood cell count at 100 mg/kg, ip qd (reference value: 7.05 10^12/L); format: organism-based; settings: in vivo
[17] = Acute toxicity in ICR mouse assessed as body weight change at 100 to 500 mg/kg, ip; format: organism-based; settings: in vivo, dose 100-500 mg/kg
[18] = Toxicity in ICR mouse assessed as change in platelet count at 100 mg/kg, ip qd (reference value: 742 10^9/L); format: organism-based; settings: in vivo
[19] = system: Bel-7402; experiment: Induction of apoptosis in human Bel-7402 cells assessed as dead cells at 0.313 uM incubated for 24 hrs by Annexin V and dead cell assay kit (reference value: 0.80 %); format: functional
[20] = Biodistribution in lung of mouse bearing tumor measured after 24 hr by ICG dye based fluorescence imaging; format: ADME, organism-based; settings: in vivo
[21] = system: Bel-7402; experiment: Induction of apoptosis in human Bel-7402 cells assessed as late apoptotic cells at 2.5 uM incubated for 24 hrs by Annexin V and dead cell assay kit (reference value: 4.45 %); format: functional
[22] = Toxicity in ICR mouse assessed as change in mean corpuscular hemoglobin concentration at 100 mg/kg, ip qd (reference value: 343 g/L); format: organism-based; settings: in vivo
[23] = system: Bel-7402; experiment: Upregulation of total protein ubiquitination level in human Bel-7402 cells at 2.5 uM by Western blot analysis; format: functional, cell-based; settings: time <= 12.0 hrs, TDE = time-dependent effect
[24] = Tmax in Sprague-Dawley rat at 20 mg/kg, ip measured for 0.03 to 24 hrs by UPLC-MS analysis; format: ADME, organism-based; settings: in vivo, time 0.03-24 hrs
[25] = system: Bel-7402; experiment: Effect on ERK signalling pathway in human Bel-7402 cells assessed as increase in phosphorylated-ERK level upto 2.5 uM incubated for 24 hrs by Western blot analysis; format: functional, cell-based
[26] = system: ECa-109 cell line; experiment: Cytotoxicity against human Eca-109 cells assessed as reduction in cell viability incubated for 72 hrs by MTT assay; format: functional, cell-based; settings: ECa-109, 72 h

Q: With `CC[C@H](C)/C=C(C)/C=C/C1=CC2=C(Cl)C(=O)[C@](C)(O)C(=O)C2=CN1Cc1ccc(OC(F)(F)F)cc1` as the compound, how does the Activity [1] read?
A: 55 fL

Q: What about the MRT last [2] of the same compound?
A: 4.46 h

Q: And the Activity [3]?
A: 50.3%

Q: And the Activity [4]?
A: 3.75%

Q: And the Activity [5]?
A: 0.3 10^9/L

Q: And the TGI [6]?
A: Active

Q: What about the Activity [7] of the same compound?
A: 4.7%

Q: What about the Activity [8] of the same compound?
A: Non-Toxic

Q: What about the Activity [9] of the same compound?
A: 13.5%

Q: And the Activity [10]?
A: Non-Toxic

Q: And the half-life [11]?
A: 2.5 h

Q: What about the Activity [12] of the same compound?
A: 18.3

Q: And the Activity [13]?
A: Active

Q: And the IC50 [14]?
A: 2290 nM

Q: What about the viability at 2.5 µM [15] of the same compound?
A: 25.1%

Q: What about the Activity [16] of the same compound?
A: 8.37 10^12/L

Q: And the Activity [17]?
A: Non-Toxic

Q: What about the Activity [18] of the same compound?
A: 608 10^9/L

Q: What about the Activity [19] of the same compound?
A: 0.35%

Q: What about the Activity [20] of the same compound?
A: Active

Q: And the Activity [21]?
A: 35.25%

Q: And the Activity [22]?
A: 306 g/L

Q: What about the Activity [23] of the same compound?
A: Tde

Q: What about the Tmax [24] of the same compound?
A: 0.75 h

Q: And the Activity [25]?
A: Active

Q: What about the IC50 [26] of the same compound?
A: 1160 nM
